The results in this text go back to patent US7642358B2, “Substituted phenylacetic acids” (Metabolex, Inc., priority 2002, dated 2010).

Bounds are passed on as bounds.

This test deals with C57BL/6J ob/ob mice. Briefly: Anti-diabetic activity (plasma glucose lowering) in C57BL/6J ob/ob mice, oral gavage. In kind it is in vivo, mouse. The note with it: male C57BL/6J ob/ob mice, oral gavage once a day for 1-4 days; for minimal effective dose: Mus musculus, dose effective for plasma glucose lowering, blood taken 6 hours after each dose, read-out: Potency. The protocol:
The anti-diabetic activities of the compounds were evaluated in the C57BL/6j ob/ob Mice model.
Male, 7-9 weeks old, C57BL/6J ob/ob mice were purchased from The Jackson Laboratory (Bar Harbor, Me., USA). Animals were housed (4-5 mice/cage) under standard laboratory conditions at 22±3° C. temperature and 50±20% relative humidity, and were maintained on a diet of Purina rodent chow and water ad libitum. Prior to treatment, blood was collected from the tail vein of each animal. Mice that had non-fasting plasma glucose levels between 250 and 500 mg/dl were used. Each treatment group consisted of 8-10 mice that were distributed so that the mean glucose levels were equivalent in each group at the start of the study. Mice were dosed orally by gavage once a day for 1-4 days with vehicle and one or more dose of test compound at a dose ranging from 5 to 125 mg/kg. Compounds were delivered in a liquid formulation containing 5% (v/v) dimethyl sulfoxide (DMSO), 1% (v/v) Tween 80® and 0.9% (w/v) methylcellulose. The gavage volume was 10 ml/kg. Blood samples were taken at 6 hours after the each dose and analyzed for plasma glucose. Food intake and body weight were measured daily. Plasma glucose concentrations were determined colorimetrically using a commercial glucose oxidase method (Sigma Chemical Co, St. Louis, Mo., USA). Significant difference between groups (comparing drug-treated to vehicle-treated) was evaluated using the Student unpaired t-test.
FIG. 6 illustrates the anti-diabetic effects of selected compounds of the present invention. Table 15 provides the relative potency of some of these selected compounds. Compounds that are effective for glucose lowering at the dose of ≧125 mg/kg are assigned a potency of +; compounds that are effective for glucose lowering at a dose of >25 mg/kg but <125 mg/kg are assigned a potency of ++; compounds that are effective for glucose lowering at a dose of ≦25 mg/kg are assigned a potency of +++. For example, a compound at 25 mg/kg that lowered the animal glucose level from 400 mg/dL (vehicle group value) to 250 mg/dL, is assigned the potency of +++.

For the molecule `O=C(O)C(Oc1ccccc1-c1nc2ccccc2o1)c1ccc(Cl)cc1` (centres unmarked) [Example I-1], the minimal effective dose was 25 to 125 mg/kg and the “Insulin Level compared with vehicle” value is on record as “Lower”.

As to `O=C(O)C(Oc1ccccc1-c1nc2ccccc2o1)c1cccc(C(F)(F)F)c1` (centres unmarked) [Example I-3], the minimal effective dose is ≥ 125 mg/kg and the “Insulin Level compared with vehicle” value was “Lower”.

Consider `O=C(O)C(Oc1ccc(C(F)(F)F)cc1-c1nc2ccccc2o1)c1cccc(C(F)(F)F)c1` (centres unmarked) [Example I-89], for which the minimal effective dose is ≤ 25 mg/kg and the “Insulin Level compared with vehicle” value is on record as “Lower”.

As to `O=C(O)C(Oc1ccc(C(F)(F)F)cc1-c1nc2ccccc2o1)c1ccccc1` (centres unmarked) [Example I-92], the minimal effective dose was ≤ 25 mg/kg and the “Insulin Level compared with vehicle” value is “Lower”.

For the molecule `O=C(O)C(Oc1ccc(Cl)cc1-c1nc2ccccc2o1)c1ccc(Cl)cc1` (centres unmarked) [Example I-190], the minimal effective dose is ≤ 25 mg/kg and the “Insulin Level compared with vehicle” value is “Lower”.

With `O=C(O)C(Oc1ccc(Cl)cc1-c1nc2ccccc2o1)c1cccc(C(F)(F)F)c1` (centres unmarked) [Example I-191], the minimal effective dose was ≤ 25 mg/kg and the “Insulin Level compared with vehicle” value was “Lower”.

With `COc1ccc(C(Oc2ccc(Cl)cc2-c2nc3ccccc3o2)C(=O)O)cc1` (centres unmarked) [Example I-193], the minimal effective dose is ≤ 25 mg/kg and the “Insulin Level compared with vehicle” value was “Lower”.

As for `O=C(O)C(Oc1ccc(Cl)cc1-c1nc2ccccc2o1)c1cccc(Cl)c1` (centres unmarked) [Example I-194], the minimal effective dose is ≤ 25 mg/kg and the “Insulin Level compared with vehicle” value was “Lower”.

Consider `O=C(O)[C@@H](Oc1ccc(C(F)(F)F)cc1-c1nc2ccccc2o1)c1ccccc1` [Example I-369], for which the minimal effective dose was ≤ 25 mg/kg and the “Insulin Level compared with vehicle” value is listed as “Lower”.

`CC(Oc1ccc(C(F)(F)F)cc1-c1nc2ccccc2o1)(C(=O)O)c1ccccc1` (centres unmarked) [Ia-365]: the minimal effective dose was ≤ 25 mg/kg and the “Insulin Level compared with vehicle” value was “Lower”.

On to `CC(Oc1ccc(C(F)(F)F)cc1-c1nc2ccccc2o1)(C(=O)O)c1ccccc1` (centres unmarked) [Ia-366], for which the “Insulin Level compared with vehicle” value is on record as “Lower”.

With `Cc1ccc(OC(C(=O)O)c2cccc(C(F)(F)F)c2)c(-n2nc3ccccc3n2)c1` (centres unmarked) [XI-2], the minimal effective dose was ≤ 25 mg/kg and the “Insulin Level compared with vehicle” value was “Lower”.

As for `Cc1ccc(OC(C(=O)O)c2ccc(C(F)(F)F)cc2)c(-n2nc3ccccc3n2)c1` (centres unmarked) [XI-6], the minimal effective dose is ≤ 25 mg/kg and the “Insulin Level compared with vehicle” value is given as “Lower”.

Take `O=C(O)C(Oc1ccc(Cl)cc1-n1nc2ccccc2n1)c1ccc(C(F)(F)F)cc1` (centres unmarked) [XI-24]: the minimal effective dose was ≤ 25 mg/kg and the “Insulin Level compared with vehicle” value is on record as “Lower”.

Regarding `O=C(O)C(Oc1ccc(C(F)(F)F)cc1-n1nc2ccccc2n1)c1cccc(C(F)(F)F)c1` (centres unmarked) [XI-47], the minimal effective dose is ≤ 25 mg/kg and the “Insulin Level compared with vehicle” value is listed as “Lower”.

For `O=C(O)C(Oc1ccc(C(F)(F)F)cc1-n1nc2ccccc2n1)c1ccc(C(F)(F)F)cc1` (centres unmarked) [XI-51], the minimal effective dose was ≤ 25 mg/kg and the “Insulin Level compared with vehicle” value is reported as “Lower”.

With `Cc1ccc(OC(C)(C(=O)O)c2ccc(Cl)cc2)c(-n2nc3ccccc3n2)c1` (centres unmarked) [XIa-5], the minimal effective dose was ≤ 25 mg/kg and the “Insulin Level compared with vehicle” value is “Lower”.

With `CC(Oc1ccc(C(F)(F)F)cc1-n1nc2ccccc2n1)(C(=O)O)c1ccc(C(F)(F)F)cc1` (centres unmarked) [XIa-51], the minimal effective dose is ≤ 25 mg/kg and the “Insulin Level compared with vehicle” value is “Lower”.
